Measurements as given in patent US11007181B2, “Cyclopamine analogs” (Infinity Pharmaceuticals, Inc., priority 2006, dated 2021).

Assays:
[1] = system: Hedgehog pathway; test: Inhibition of the Hedgehog pathway in cell culture: C3H10T1/2 osteoblast differentiation, alkaline phosphatase assay; assay type: cell-based, Mouse; settings: approximate EC50 for inhibition, C3H10T1/2 cells, sonic Hedgehog 250 ng/ml, alkaline phosphatase activity normalized to total protein
Excerpt: Hedgehog pathway specific cancer cell killing effects may be ascertained using the following assay. C3H10T1/2 cells differentiate into osteoblasts when contacted with the sonic hedgehog peptide (Shh-N). Upon differentiation; these osteoblasts produce high levels of alkaline phosphatase (AP) which can be measured in an enzymatic assay (Nakamura et al., 1997 BBRC 237: 465). Compounds that block the differentiation of C3H10T1/2 into osteoblasts (a Shh dependent event) can therefore be identified by a reduction in AP production (van der Horst et al., 2003 Bone 33: 899). The assay details are described below. The results approximate (EC50 for inhibition) of the differentiation assay is shown below in Table 1.
Mouse embryonic mesoderm fibroblasts C3H10T1/2 cells (obtained from ATCC) were cultured in Basal MEM Media (Gibco/Invitrogen) supplemented with 10% heat inactivated FBS (Hyclone), 50 units/ml penicillin and 50 ug/ml streptomycin (Gibco/Invitrogen) at 37 C with 5% CO2 in air atmosphere.
C3H10T1/2 cells were plated in 96 wells with a density of 8×10^3 cells/well. Cells were grown to confluence (72 hrs). After sonic Hedgehog (250 ng/ml), and/or compound treatment, the cells were lysed in 110 μL, of lysis buffer (50 mM Tris pH 7.4, 0.1% TritonX100), plates were sonicated and lysates spun through 0.2 μm PVDF plates (Corning). 40 μL, of lysates was assayed for AP activity in alkaline buffer solution (Sigma) containing 1 mg/ml p-Nitrophenyl Phosphate. After incubating for 30 min at 37° C., the plates were read on an Envision plate reader at 405 nm. Total protein was quantified with a BCA protein assay kit from Pierce according to manufacturer's instructions. AP activity was normalized against total protein.

[2] = system: Gli-1 mRNA; test: Medulloblastoma model: Ptch1/Hic1 subcutaneous allografts, Gli-1 mRNA expression; assay type: in vivo, mouse; settings: single oral dose, subcutaneously implanted medulloblastoma tumors, 8 hours post dose
Method: (§1) The activity of Compound 42 was also evaluated in a transgenic mouse model of medulloblastoma. Mice that are heterozygous for loss of function mutations in the tumor suppressors Patched1 (Ptch1) and Hypermethylated in Cancer (Hic1) develop spontaneous medulloblastoma. […] When passaged as subcutaneous allografts, these tumors grow aggressively and are Hedgehog pathway-dependent. This model was employed to evaluate the efficacy of orally administered Compound, and to correlate activity with drug exposure in plasma and tumors.

[3] = system: LX22 cells; test: Lung cancer model: LX22 primary SCLC xenograft in mice; assay type: in vivo, human
Excerpt: To test the activity of Compound 42 in a human SCLC tumor model, LX22 cells were implanted subcutaneously into the flank of the right leg. LX22 is primary xenograft model of SCLC derived from chemo-naive patients, which has been maintained by mouse to mouse passaging. This tumor responds to etoposide/carboplatin chemotherapy in way that closely resembles a clinical setting. LX22 regresses during chemotherapy treatment, goes through a period of remission, and then begins to recur. In the LX22 model, Compound single agent activity and its ability to modulate the chemoresistant recurrence was tested. On day 32 post tumor implant, mice were randomized into three dosing groups to receive Vehicle (30% HBPCD), Compound, or the chemotherapy combination of etoposide and carboplatin (E/P). […] Etoposide was administered i.v at 12 mg/kg on days 34, 35, 36, and 48, while Carboplatin was administered i.v. at 60 mg/kg on days 34, 41, and 48, post tumor implant. On day 50, the E/P treated mice were further randomized to receive either Vehicle (30% HPBCD) or Compound follow up treatment.

[4] = system: human Gli-1; test: Pancreatic cancer model: q-RT-PCR of HH pathway genes in harvested tumors, human Gli-1; assay type: in vivo; settings: BXPC-3 tumors harvested 4 hours post last dose, 40 mg/kg/day
Method: (§2) The activity of Compound 42 was tested in a human pancreatic model: BXPC-3 cells were implanted subcutaneously into the flanks of the right legs of mice. On day 42 post-tumor implant, the mice were randomized into two groups to receive either Vehicle (30% HPBCD) or Compound 42. Compound 42 was dosed at 40 mg/kg/day. […] At the end of the study, the tumors were harvested 4 hours post the last dose to evaluate an on target response by q-RT-PCR analysis of the HH pathway genes.

[5] = system: BXPC-3 cells; test: Pancreatic cancer model: BXPC-3 subcutaneous tumors in mice, tumor volume; assay type: in vivo, human; settings: 40 mg/kg/day, 25 daily doses, p=0.0309
Method: as §2

[6] = system: medulloblastoma; test: Medulloblastoma model: Ptch1/Hic1 subcutaneous allografts, tumor growth and survival; assay type: in vivo, mouse; settings: daily (QD) PO administration
Method: as §1
The approximate effective daily oral dose for 50% inhibition of tumor growth (ED50) is 4 mg/kg.

[7] = system: murine Gli-1 mRNA; test: Pancreatic cancer model: q-RT-PCR of HH pathway genes in harvested tumors, murine Gli-1; assay type: in vivo; settings: BXPC-3 tumors harvested 4 hours post last dose, 40 mg/kg/day, vs Vehicle group
Method: as §2

[8] = Oral multi-dose MTD; assay type: in vivo, mice

CC1=C2C[C@H]3[C@@H](CC=C4C[C@@H](O)CC[C@@]43C)[C@@H]2CC[C@@]2(C1)O[C@@H]1C[C@H](C)CN[C@H]1[C@H]2C [Compound 8]
EC50 [1]: > 100 nM

CC1=C2C[C@H]3[C@@H](CC[C@@H]4CC(=O)CC[C@@]43C)[C@@H]2CC[C@@]2(C1)O[C@@H]1C[C@H](C)CN(C(C)C)[C@H]1[C@H]2C [Compound 10]
EC50 [1]: > 100 nM

CC1=C2C[C@H]3[C@@H](CC[C@@H]4C[C@@H](OC(=O)CN)CC[C@@]43C)[C@@H]2CC[C@@]2(C1)O[C@@H]1C[C@H](C)CN[C@H]1[C@H]2C [Compound 40]
EC50 ([1]; Mus musculus, C3H 10T1/2): < 20 nM

CC1=C2C[C@H]3[C@@H](CC[C@@H]4C[C@H](NS(C)(=O)=O)CC[C@@]43C)[C@@H]2CC[C@@]2(C1)O[C@@H]1C[C@H](C)CN[C@H]1[C@H]2C [Compound 42]
HH pathway modulation measured by Gli-1 mRNA expression [2]: dose-dependent down-regulation of the HH pathway
single agent activity, treated vs vehicle groups ([3]; 40 mg/kg/day, 16 consecutive doses): no measurable difference between the treated and vehicle groups
tumor recurrence after etoposide/carboplatin (E/P) chemotherapy ([3]; follow up treatment from day 50, 40 mg/kg/day oral, 35 consecutive doses, vs vehicle, p=0.0101): substantial delay in tumor recurrence
human Gli-1 modulation (q-RT-PCR) [4]: no modulation
reduction of tumor volume growth compared to vehicle control [5]: 40%
tumor growth [6]: dose dependent inhibition of tumor growth, with frank tumor regression seen at higher doses
murine Gli-1 mRNA levels (q-RT-PCR) [7]: robust down-regulation
oral multi-dose MTD [8]: 40 mg/kg/day
